Measurements published in US5703205A, “Laminin a chain polypeptides from the amino terminal golbular domain” (Regents of the University of Minnesota, priority 1993, dated 1997).

Key:
Format in all cases: cell-based
[1] = test system: human colon carcinoma (KI2SM); test: Direct cell adhesion to coated surfaces (Table II); conditions: wells coated with 5 μg, 2 hours, % of total cells added
Text: (§1) The human fibrosarcoma HT-1080 cell line was obtained from the ATCC. The murine melanoma K-1735-C10 (low metastatic) and K-1735-M4 (high metastatic) cell lines, murine UV-2237-MM fibrosarcoma cell line, human renal carcinoma SN12 PM-6 (high metastatic) cell line, and human colon carcinoma KM12 C (low metastatic) and KM12 SM (high metastatic) cell lines were originally provided by Dr. I. J. Fidler (M.D., Anderson Hospital, University of Texas Health Sciences Center, Houston, Tex.). The MM fibrosarcoma cell line was maintained in DME (GIBCO Laboratories, Grand Island, N.Y.) containing 10% FBS, the murine melanomas were maintained in DMEM containing 10% calf serum, the human fibrosarcoma cells were maintained in EMEM containing 10% heat inactivated FBS, and the human renal and colon carcinoma cells were grown in EMEM containing 10% FBS, vitamins, and 1 mM sodium pyruvate. Cells were passaged for 4 to 5 weeks and then replaced from frozen stocks of early passage cells to minimize phenotypic drift. Cells were maintained at 37° C. in a humidified incubator containing 5% CO2.
(§2) The direct adhesion of cells to protein or peptide coated surfaces was performed as described in Skubitz et al., Exp. Cell Res., 173, 349-360 (1987) and Charonis et al., supra (1988). Briefly, radiolabeled cells were added to 96-well microtiter plates coated with various concentrations of synthetic peptides, laminin, or BSA (0.02 μg/well-50 μg/well from 50 μl solutions) for various lengths of time. After the incubation period, loosely or nonadherent cells were removed by washing the wells three times. Adherent cells weresolubilized and quantitated in a scintillation counter. More specifically, cultures of cells which were 60-80% confluent were metabolically labeled for 24 hours with the addition of 3 μCi/ml of ^3 H-td (tritiated thymidine). On the day of the assay, the cells were harvested by trypsinization, the trypsin was inhibited by the addition of serum, and the cells were washed free of this mixture and resuspended in DMEM buffered with HEPES at pH 7.2. The adhesion medium also contained 2 mg/ml BSA. The cells were adjusted to a concentration of 3-4×10^4/ ml, and 100 μl of this cell suspension was added to the wells. The assay mixture was then incubated at 37° C. for 120 minutes. At the end of the incubation, the wells were washed with warm DMEM/Hepes containing 2 mg/ml BSA, and the adherent population was solubilized with 0.5N NaOH contained 1% SDS. The solubilized cells were then quantitated using a liquid scintillation counter.
(§3) Microtiter wells were adsorbed with peptide R18, laminin, or BSA and a variety of tumor cell lines were tested for the ability to adhere to the ligands. The six different tumor cell lines selected for this study were of murine or human origin and, in most cases, of either high or low metastatic capacity. As reported in Table II, peptide R18 was also capable of promoting the adhesion of all six cell lines.
(§4) *Microtiter wells were coated with 5 μg of the peptide or proteins and […]

murine melanoma (M4) = test: Direct cell adhesion to coated surfaces (Table II); conditions: wells coated with 5 μg, 2 hours, % of total cells added
Text: as §1, §2, §3, §4

[2] = test system: human renal carcinoma (SN12 PM6); test: Direct cell adhesion to coated surfaces (Table II); conditions: wells coated with 5 μg, 2 hours, % of total cells added
Text: as §1, §2, §3, §4

[3] = test system: human colon carcinoma (K12C); test: Direct cell adhesion to coated surfaces (Table II); conditions: wells coated with 5 μg, 2 hours, % of total cells added
Text: as §1, §2, §3, §4

murine melanoma (C10) = test: Direct cell adhesion to coated surfaces (Table II); conditions: wells coated with 5 μg, 2 hours, % of total cells added
Text: as §1, §2, §3, §4

murine fibrosarcoma (MM) = test: Direct cell adhesion to coated surfaces (Table II); conditions: wells coated with 5 μg, 2 hours, % of total cells added
Text: as §1, §2, §3, §4

[4] = test system: HT-1080 human fibrosarcoma cells; test: Cell spreading assay on coated surfaces; conditions: for Cells Spread (%) / Surface Area Occupied by a Cell: wells coated with 300 μl at 100 μg/ml, 2 1/2 hour incubation
Experimental: Spreading of the adherent cells was evaluated by performing adhesion assays similar to those described above. Twenty-four well tissue culture plates (Becton Dickinson and Co., Lincoln Park, N.J.) were coated with 300 μl of laminin, synthetic peptides, or BSA at 100 μg/ml, then blocked with 2 mg/ml BSA in PBS. Three hundred microliters of a cell suspension at 5×10^4 cells/ml was added to each well, and after a 21/2 hour incubation, nonadherent cells were aspirated out of the wells. Adherent cells were fixed with 2% glutaraldehyde in PBS at 23° C. for one hour. The glutaraldehyde was then removed and the cells were stained by two different techniques. For photographic purposes, the cells were stained with Diff-Quik Solution I (American Scientific Products, McGaw Park, Ill.) for 10 minutes at 23° C. Solution I was removed, then Diff-Quik Solution II was added and the cells were stained for another 10 minutes at 23° C. Wells were washed with PBS, then representative cells were photographed with a Nikon DIAPHOT inverted phase microscope using Panatomic X Film ASA32 (Eastman Kodak, Rochester, N.Y.). Adherent cells to be quantitated for spreading were stained overnight at 23° C. with 500 μl of a solution containing 0.12% (w/v) Coomassie Brilliant Blue R (Sigma Chemical Co.), 5% (v/v) acetic acid, and 50% (v/v) ethanol. Wells were washed three times with 500 μl of PBS and cell spreading was then quantitated by measuring the average surface area occupied by a cell using an Opti-Max Image Analyzer. Thirty cells were measured per well; each experiment was done in quadruplicate and repeated three times. Cells spread the best on peptide R17 and R18 and occupy an area of ~30% of that seen for cells on laminin-coated surfaces. On surfaces coated with peptides R19, R20, and R32, less cell spreading was observed; cells occupied an area ~20% of that seen on intact laminin. Cell spreading on ovalbumin (negative control) was less than 10% of that seen on laminin but the cells were barely adherent under these last conditions.

[5] = test system: HT-1080 human fibrosarcoma cells; test: Direct adhesion of radiolabeled cells to peptide or protein coated microtiter wells; conditions: increasing concentrations adsorbed, up to 5 μg/well; 120 minutes
Experimental: FIG. 3 reports results in microtiter wells adsorbed with increasing concentrations of HPLC-purified peptides R17 (.smallcircle.) R18 (.quadrature.), or R19 (Δ), R20 (.circle-solid.), R32 (.box-solid.), laminin (.tangle-solidup.), or ovalbumin (.diamond.) and radiolabeled HT-1080 human fibrosarcoma cells that were allowed to adhere for 2 hours after being released from flasks with EDTA/trypsin. Each value represents the mean of four separate determinations, and the SEM was less than 10% in each case.
The direct adhesion of cells to protein or peptide coated surfaces was performed as described in Skubitz et al., Exp. Cell Res., 173, 349-360 (1987) and Charonis et al., supra (1988). Briefly, radiolabeled cells were added to 96-well microtiter plates coated with various concentrations of synthetic peptides, laminin, or BSA (0.02 μg/well-50 μg/well from 50 μl solutions) for various lengths of time. After the incubation period, loosely or nonadherent cells were removed by washing the wells three times. Adherent cells weresolubilized and quantitated in a scintillation counter. […] The solubilized cells were then quantitated using a liquid scintillation counter.
In this case, increasing concentrations of the five synthetic peptides were adsorbed to microtiter wells. Radiolabeled HT-1080 human fibrosarcoma cells were incubated in the wells for 120 minutes and the adhesion of cells was quantitated. […]

| Substance | Cell Adhesion (%) to Coated Surfaces [1] [%] | Cell Adhesion (%) to Coated Surfaces (murine melanoma (M4)) [%] | Cell Adhesion (%) to Coated Surfaces [2] [%] | Cell Adhesion (%) to Coated Surfaces [3] [%] | Cell Adhesion (%) to Coated Surfaces (murine melanoma (C10)) [%] | Cell Adhesion (%) to Coated Surfaces (murine fibrosarcoma (MM)) [%] | Cells Spread (%) [4] [%] | Surface Area Occupied by a Cell [4] [um^2] | cell adhesion to coated wells (in words) [5] | area occupied by cells relative to that on laminin-coated surfaces ([4]; HT-1080 cell spreading, relative to intact laminin) |
| --- | --- | --- | --- | --- | --- | --- | --- | --- | --- | --- |
| Laminin | 36 | 50 | 40 | 25 | 80 | 43 | 95 | 611 ± 79 |  |  |
| Ovalbumin: negative control protein |  |  |  |  |  |  | 0 | 71 ± 41 | no cell adhesion was observed | less than 10% |
